This is an account of results in patent publication US20070292405A1, “Uses of Erss Modulators” (priority 2004, published 2007).

Data set [1] has as its target T1, mouse ERα receptor (mERα) (Mus musculus, UniProt P19785).
T1 construct: expressed in transfected cells; host or cells: COS (COS-1)
T1 sequence (P19785 1-599): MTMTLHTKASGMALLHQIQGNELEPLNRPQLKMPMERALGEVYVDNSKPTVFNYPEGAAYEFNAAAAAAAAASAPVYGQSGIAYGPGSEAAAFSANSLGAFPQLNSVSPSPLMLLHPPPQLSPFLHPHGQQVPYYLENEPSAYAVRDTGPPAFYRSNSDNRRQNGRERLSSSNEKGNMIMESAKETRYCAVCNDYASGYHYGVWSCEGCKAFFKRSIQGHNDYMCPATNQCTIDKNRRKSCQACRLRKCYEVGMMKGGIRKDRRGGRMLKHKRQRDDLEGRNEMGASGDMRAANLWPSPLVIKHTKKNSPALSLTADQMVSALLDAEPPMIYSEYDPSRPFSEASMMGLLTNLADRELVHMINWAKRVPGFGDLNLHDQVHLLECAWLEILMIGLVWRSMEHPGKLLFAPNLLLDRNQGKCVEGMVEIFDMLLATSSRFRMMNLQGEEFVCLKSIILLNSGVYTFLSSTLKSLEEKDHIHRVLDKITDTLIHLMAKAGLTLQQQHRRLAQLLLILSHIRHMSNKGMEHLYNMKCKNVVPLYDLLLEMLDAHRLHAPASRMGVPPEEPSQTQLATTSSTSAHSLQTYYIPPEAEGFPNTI
Briefly: Luciferase reporter assay: transactivation of (ERE)-TK-Luc by ERα in COS cells. In kind it is cell-based. The note with it: for activation of ERα (in words): compound alone, 7HD at similar concentration as for ERβ, ICI 182, 780 at 1 μM. How it is done:
(§1) Values shown are means (±S.E.M.) of 3 to 5 independent experiments each carried out in triplicate.
(§2) COS-1 cells and HepG2 cells were maintained in high glucose Dulbecco's minimum essential medium (DMEM) containing penicillin (25 units/ml), streptomycin (25 μg/ml), and 10% fetal calf serum (v/v). Cells were seeded at a density of 5×10^5 cells/dish and left to adhere overnight. On the day of the transfection, the medium was replaced with DMEM lacking phenol red supplemented with 10% DCC-FCS (v/v). Transfections were carried out using the calcium phosphate procedure according to standard protocols with 10 μg DNA ([…] expression plasmid, 1-5 μg reporter plasmid, 1 μg pCH110 encoding β-galactosidase used as internal control (Pharmacia) and 3-7 μg pGEM3). Expession plasmid were: the mouse ERα receptor (mERα gift from Prof. M. Parker, London U.K. (31)), human ERβ. receptor (hERβ; from Dr R. White, London U.K. (32)) and human androgen receptor (pSVARo; Prof. A. Brinkman, Rotterdam Holand). […] Reporter plasmids were: (ERE)-TK-Luc (gift From Dr V. Giguere, Montreal, Canada) for estrogen responsivity and PSA (PSA61-luc, Prof. J. Trapman, Rotterdam Holland) for androgen responsivity. […] Following cell lysis, luciferase and β-galactosidase activities were measured as described (33). Data are expressed as relative luciferase/β-galactosidase and are means±S.E.M. from at least three independent experiments.
(§3) Both COS-1 cells and HepG2 cells were used and both these cell lines require exogenous AR, ERα and ERβ to activate androgen (PSA) or estrogen (ERE) responsive reporter genes.

Data set [2] addresses T2, human ERβ receptor (hERβ) (Homo sapiens, UniProt Q92731).
T2 construct: expressed in transfected cells; host or cells: HepG2
Put plainly: Luciferase reporter assay: transactivation of (ERE)-TK-Luc by ERβ in HepG2 cells. It counts as cell-based. As for the experimental part:
as §1, §2, §3
(A reporter such as luciferase makes a cellular process visible.)

For data set [3], the target named is T3, human androgen receptor (hAR) (Homo sapiens, UniProt P10275).
T3 construct: expressed in transfected cells; host or cells: COS-1
T3 sequence (P10275 1-920): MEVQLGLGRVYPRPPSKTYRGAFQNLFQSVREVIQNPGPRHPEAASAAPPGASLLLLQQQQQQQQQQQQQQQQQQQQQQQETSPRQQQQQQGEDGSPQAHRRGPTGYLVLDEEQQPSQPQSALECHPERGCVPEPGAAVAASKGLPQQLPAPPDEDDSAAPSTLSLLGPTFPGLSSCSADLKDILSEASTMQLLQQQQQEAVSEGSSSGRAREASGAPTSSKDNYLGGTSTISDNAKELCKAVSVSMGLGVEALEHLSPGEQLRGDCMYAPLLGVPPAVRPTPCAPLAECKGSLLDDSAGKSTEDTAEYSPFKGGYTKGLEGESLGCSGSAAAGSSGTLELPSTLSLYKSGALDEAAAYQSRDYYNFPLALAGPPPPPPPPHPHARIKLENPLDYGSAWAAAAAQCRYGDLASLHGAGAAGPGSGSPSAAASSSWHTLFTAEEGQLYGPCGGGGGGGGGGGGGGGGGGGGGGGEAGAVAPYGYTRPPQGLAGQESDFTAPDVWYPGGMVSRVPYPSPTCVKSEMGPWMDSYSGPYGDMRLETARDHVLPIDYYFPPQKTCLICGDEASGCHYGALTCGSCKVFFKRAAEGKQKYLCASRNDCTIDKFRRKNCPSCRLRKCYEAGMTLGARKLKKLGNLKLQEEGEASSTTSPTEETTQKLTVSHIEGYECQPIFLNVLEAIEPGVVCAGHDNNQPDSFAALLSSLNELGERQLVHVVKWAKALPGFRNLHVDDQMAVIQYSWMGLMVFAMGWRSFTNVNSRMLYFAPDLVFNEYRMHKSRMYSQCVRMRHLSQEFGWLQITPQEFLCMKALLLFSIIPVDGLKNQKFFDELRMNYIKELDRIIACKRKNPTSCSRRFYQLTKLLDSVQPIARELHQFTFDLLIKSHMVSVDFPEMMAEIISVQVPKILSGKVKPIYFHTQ
Put plainly: Luciferase reporter assay: transactivation of PSA-Luc reporter in COS-1 cells containing hAR. In kind it is cell-based. As for the experimental part: as §1
COS-1 cells and HepG2 cells were maintained in high glucose Dulbecco's minimum essential medium (DMEM) containing penicillin (25 units/ml), streptomycin (25 μg/ml), and 10% fetal calf serum (v/v). Cells were seeded at a density of 5×10^5 cells/dish and left to adhere overnight. On the day of the transfection, the medium was replaced with DMEM lacking phenol red supplemented with 10% DCC-FCS (v/v). Transfections were carried out using the calcium phosphate procedure according to standard protocols with 10 μg DNA ([…] expression plasmid, 1-5 μg reporter plasmid, 1 μg pCH110 encoding β-galactosidase used as internal control (Pharmacia) and 3-7 μg pGEM3). Expession plasmid were: the mouse ERα receptor (mERα gift from Prof. M. Parker, London U.K. (31)), human ERβ. receptor (hERβ; from Dr R. White, London U.K. (32)) and human androgen receptor (pSVARo; Prof. A. Brinkman, Rotterdam Holand). […] Following cell lysis, luciferase and β-galactosidase activities were measured as described (33). Data are expressed as relative luciferase/β-galactosidase and are means±S.E.M. from at least three independent experiments. […]

A further data set has as its target T4, human ERβ receptor (Homo sapiens, UniProt Q92731).
T4 construct: made in house; host or cells: cell-free: TnT-coupled reticulocyte lysate system (Promega)
Briefly: Ligand-competition study: [3H]-E2 binding to in vitro synthesised ERβ protein. The note with it: 7HD 0-250 μM, 16 h, reticulocyte lysate. How it is done: Reticulocyte lysate containing ERβ protein was equilibrated for 16 h with […] [3H]-E2 and the indicated fold excess of 7HD. Data represent [3H]-E2 bound in presence of 7HD (0-250 μM). [3H]-E2 binding in the absence of 7HD was set at 100%. *, p<0.001 and γ, p<0.01; 7HD vs control without 7HD.
Human ERβ clone was synthesised in vitro using the TnT-coupled reticulocyte lysate system following manufacturer instructions (Promega, Southampton, U.K.). Translation reaction mixtures were diluted five times with TEDGMo buffer (40 mM Tris/Hcl, pH 7.4/1 mM EDTA/10% (vol/vol) glycerol/10 mMNa2MoO4/10 mM DTT) and 0.1 ml aliquots were incubated for 16 h at 4° C. with 0.5 nM [2,4,6,7-^3H]4-E2 (specific radioactivity 89 Ci/mmol) in presence of either 0, 1, 5, 10, 20, 50 and 250 μM of 7HD. Bound and unbound steroids were separated by filtration.
The ability of 7HD to inhibit [^3H]-E2 binding was also measured by a competition binding assay using human ERβ receptor synthesised in vitro from our human ERβ clone (hERβ) using a TnT-coupled reticulocyte lysate system (FIG. 7). In our competition study, 7HD interacted with ERβ receptor and inhibited [^3H]-E2 binding dose-dependently.

Data set [4] deals with whole human prostate chips. Briefly: DHEA metabolism in whole human prostate chips, metabolites analysed by HPLC. It counts as in vitro ADME.
In the next data set the test system is 3β-HSD. Put plainly: Production of A/anedione from DHEA in human prostate chips (TLC). It counts as biochemical. As to conditions: 1 μM trilostane.

Molecules are shown by their SMILES.

T2 sequence (Q92731 whole entry): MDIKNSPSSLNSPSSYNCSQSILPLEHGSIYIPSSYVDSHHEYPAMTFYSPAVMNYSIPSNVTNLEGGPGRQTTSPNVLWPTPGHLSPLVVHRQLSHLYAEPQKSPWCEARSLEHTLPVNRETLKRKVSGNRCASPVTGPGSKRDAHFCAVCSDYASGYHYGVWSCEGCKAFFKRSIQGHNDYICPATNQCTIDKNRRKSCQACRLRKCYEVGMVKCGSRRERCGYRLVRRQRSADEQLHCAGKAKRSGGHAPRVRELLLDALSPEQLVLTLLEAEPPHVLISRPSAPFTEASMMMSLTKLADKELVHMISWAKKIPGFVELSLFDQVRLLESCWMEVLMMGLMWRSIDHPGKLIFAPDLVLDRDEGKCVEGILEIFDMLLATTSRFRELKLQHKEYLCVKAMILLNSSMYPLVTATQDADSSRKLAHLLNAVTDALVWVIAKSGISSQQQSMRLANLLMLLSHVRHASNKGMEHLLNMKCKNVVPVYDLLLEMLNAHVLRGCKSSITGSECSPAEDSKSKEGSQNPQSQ
T4 sequence (Q92731 whole entry): as above

`C[C@]12CC[C@@H]3c4ccc(O)cc4C[C@@H](CCCCCCCCC[S+]([O-])CCCC(F)(F)C(F)(F)F)[C@H]3[C@@H]1CC[C@@H]2O` (some centres unmarked) [ICI 182, 780]: the “effect on E2 and 7HD-induced transcription of luciferase, ERα co-transfected cells” value in data set [1] (1 μM) is given as “completely abolished”. The “activation of ERα (in words)” value in data set [1] is reported as “could not stimulate”.

With `C[C@]12CC[C@H](O)CC1=C[C@@H](O)[C@@H]1[C@@H]2CC[C@]2(C)C(=O)CC[C@@H]12` [7HD, 7α-hydroxyDHEA], in data set [2] ((ERE)-TK-Luc, HepG2 cells, read-out: EC50 of activation of ERβ-mediated transcription), the EC50 came to 6.2 µM. Besides, the “transcriptional effect combined with sub-minimal dose of E2” value in data set [2] (E2 0.1 nM, p<0.01) is on record as “additive”. Also, the “activation of ERβ-mediated transcription (in words)” value in data set [2] (compound alone, ICI 182, 780 at 1 μM) was “significantly activated”. Besides, in data set [1], the “activation of ERα (in words)” value is “minimal, non-specific activation”. Besides, the “activation of androgen receptor dependent transcription of PSA-luciferase reporter (in words)” value in data set [3] is “unable to activate”. The “inhibition of [3H]-E2 binding to ERβ” value at human ERβ receptor is listed as “dose-dependently”.

Take `C[C@]12CC[C@H](O)CC1=CC[C@@H]1[C@@H]2CC[C@]2(C)C(=O)CC[C@@H]12` [DHEA, dehydroepiandosterone]: in data set [4], the “share of DHEA metabolites that represent A/enetriol” value amounted to 9%; the “share of DHEA metabolites that were products of 3β-HSD and 17β-HSD” value amounted to 37%.

On to `C[C@]12CC[C@H]3[C@@H](CC[C@@]45O[C@@H]4C(O)=C(C#N)C[C@]35C)[C@@H]1CC[C@@H]2O` [Trilostane], for which, in the data set on 3β-HSD, the “effect on production of A/anedione” value is listed as “successfully blocked”.

A word on the EC50: it is the concentration at which the effect is half-maximal.
